Legend:
[1] = Tolerability of intravesical RTX in healthy cats (physical exam, blood count, chemistry); assay type: in vivo, cat; conditions: healthy cats, 5, 25 or 50 mcg intravesical, during or post administration
Description: (§1) To examine the effect of intravesical instillation of RTX on the bladder, 6 healthy cats, between the 2-5 years of age, were treated with either 5 (low dose), 25 (mid dose) or 50 mcg (high dose) of RTX (volume was 25 ml; concentrations were 0.2, 1, and 2 mcg/ml). These doses are considered equivalent to administration of 20, 100, or 200 mcg in a human with a volume of 100 ml. A seventh cat received saline only and served as the control. The bladders of the anesthetized cats were emptied and then flushed with sterile saline via a foley urinary catheter. Once the saline was removed, the treatment with RTX (test cats) or saline alone (control cat) was administered over 60 seconds and left in the bladder for 20 minutes.
A physical exam, complete blood count and chemistry parameters were performed on day 0, 7, and 14. Complete blood count and chemistry parameters were analyzed at the Clinical Pathology Laboratory at the University of Georgia. Food consumption and signs of abnormal urination were monitored through the study period.

[2] = system: CGRP and SP afferent nerve fibers (TRPV1 axons) innervating the cat bladder; test: Density of CGRP and SP afferent nerve fibers in cat bladder (IHC, confocal); assay type: in vivo
Description: as §1
At day 14 the cats were anesthetized and perfused with saline followed by 10% formalin. After confirmation of successful euthanasia, lumbar and sacral segments of the spinal cord with corresponding dorsal spinal ganglia, the urinary bladder and urethra were harvested and tissues were prepared for immunohistochemistry.
Previous studies have shown that TRPV1-immunoreactive axons co-express Calcitonin gene-related peptide (CGRP) and substance P (SP) (See, e.g., Sharrad et al. (2015) Neurosci. Lett., 599: 164-171; Bae et al. (2004) J. Comp. Neurol. 478: 62-71). Since feline bladder connective tissue, smooth muscle, and cell bodies of S2 DRG express CGRP+ and SP+ axons, expression of CGRP and SP were used in these studies to identify the majority of TRPV1 axons innervating the cat bladder and TRPV1+ cell bodies in cat S2 dorsal root ganglia (DRG).

[3] = Local tolerance and clinical observations after intravesical RTX in dogs; assay type: in vivo, dog; conditions: single 25 or 250 mcg intravesical
Description: Local tolerance and the pharmacokinetic (PK), and toxicokinetic (TK) profile of RTX in dogs was determined after a single instillation of RTX into the bladder of dogs (n=6). The RTX formulations were prepared using aseptic techniques in a biological safety cabinet (BSC) by mixing the appropriate amount of diluent with the appropriate amount of RTX. Dosing formulation concentrations used were 1 and 10 mcg/mL.
RTX was administered via intravesical instillation into the urinary bladder. The animals were given a single dose of 25 or 250 mcg/dose in a total volume of 25 mL on Day 1 over a period of 1 hour (±5 minutes). RTX and diluent were administered to the dogs under general anesthesia via a Foley catheter placed into the bladder for 1 hour (±5 minutes).
Observations for morbidity, mortality, injury, and the availability of food and water were conducted twice daily for all animals. Observations for clinical signs for all animals were conducted on Day 2. The observations included evaluation of the skin, fur, eyes, ears, nose, oral cavity, thorax, abdomen, external genitalia, limbs and feet, respiratory and circulatory effects, autonomic effects such as salivation, and nervous system effects including tremors, convulsions, reactivity to handling, and unusual behavior.

dogs with bladder cancer = test: Lower urinary tract symptom scale in dogs with bladder cancer (Example D); assay type: in vivo, dog; conditions: 1.0 or 2.0 ug/ml intravesical
Description: Dogs with bladder cancer were treated with RTX as follows. Under general anesthesia, RTX was infused directly into the bladder using a foley catheter. RTX remained in the bladder for 30 minutes before removal.
6 dogs were enrolled and treated at the following doses: • <10 kg: RTX 25 ug diluted in 24 ml NaCl (1.0 ug/ml solution) • >10 kg: RTX 50 ug diluted in 48 ml NaCl (1.0 ug/ml solution)
7 dogs were then enrolled and treated at the following doses: • <10 kg: RTX 25 ug diluted in 11.5 ml NaCl (2.0 ug/ml solution) • 10-25 kg: RTX 50 ug diluted in 23 ml NaCl (2.0 ug/ml solution) • >25 kg: RTX 100 ug diluted in 46 ml NaCl (2.0 ug/ml solution)
Three dogs were treated twice with at least 28 days between treatments. Two dogs were lost to follow-up after day 0.
The primary endpoint was assessment of improvement of lower urinary tract signs with a 4-point lower urinary tract symptom scale (character of urination/degree of straining; frequency of urination (daytime); frequency of urination (nighttime); and blood in urine). The secondary endpoints were anti-cancer effect, as measured by bladder ultrasound, and quality of life.

Which “Tolerability / clinical adverse effects” value [1] does the source give for `C=C(C)[C@]12C[C@@H](C)[C@@]34O[C@](Cc5ccccc5)(O[C@@H]1[C@@H]3C=C(COC(=O)Cc1ccc(O)c(OC)c1)C[C@]1(O)C(=O)C(C)=C[C@@H]41)O2` [RTX, resiniferatoxin] here?
Its value is “well tolerated with no clinical adverse effects noted”.

What about the “density of CGRP and SP axons innervating cat bladder body” value ([2]; 5, 25 and 50 mcg single administration, 14 days post-treatment, vs saline) of the same compound?
Its value is “reduced”.

What about the “density of CGRP or SP fibers in cat bladder” value ([2]; 5 mcg RTX in 25 ml saline) of the same compound?
Its value is “modest reduction”.

And the “density of CGRP and SP-immunoreactive axons innervating cat bladder body” value ([2]; 25 and 50 mcg, day 14, vs control saline)?
Its value is “decreased”.

And the “ablation of afferent nerves” value ([2]; 25 mcg and 50 mcg in 25 ml saline)?
The value was “effective at ablating afferent nerves”.

And the “density of CGRP and SP fibers in body, trigon and fundus” value ([2]; 25 or 50 mcg in 25 ml saline, vs control)?
Its value is “more significant reduction”.

What about the “Tolerability, detailed clinical observations, body weight” value [3] of the same compound?
The value was “well tolerated and did not result in any detailed clinical observations or changes in body weight”.

And the “Improvement of at Least 1 Score, percent of dogs” value (dogs with bladder cancer; Day 7, n = 11)?
Its value is 54.5%.

And the “Improvement of at Least 2 Scores, percent of dogs” value (dogs with bladder cancer; Day 7, n = 11)?
Its value is 36.4%.

And the “Improvement of at least 1 score (lower urinary tract symptom scale), number of dogs” value (dogs with bladder cancer; Day 7, n = 11)?
The value was 6.

And the “Improvement of at least 2 scores (lower urinary tract symptom scale), number of dogs” value (dogs with bladder cancer; Day 7, n = 11)?
Its value is 4.

What about the “Improvement of at Least 1 Score, percent of dogs” value (dogs with bladder cancer; Day 14, n = 11) of the same compound?
Its value is 72.7%.

What about the “Improvement of at Least 2 Scores, percent of dogs” value (dogs with bladder cancer; Day 14, n = 11) of the same compound?
The value was 45.5%.

And the “Improvement of at least 1 score (lower urinary tract symptom scale), number of dogs” value (dogs with bladder cancer; Day 14, n = 11)?
Its value is 8.

And the “Improvement of at least 2 scores (lower urinary tract symptom scale), number of dogs” value (dogs with bladder cancer; Day 14, n = 11)?
Its value is 5.

And the “Improvement of at Least 1 Score, percent of dogs” value (dogs with bladder cancer; Day 28, n = 8)?
Its value is 75.0%.

And the “Improvement of at Least 2 Scores, percent of dogs” value (dogs with bladder cancer; Day 28, n = 8)?
The value was 50.0%.

What about the “Improvement of at least 1 score (lower urinary tract symptom scale), number of dogs” value (dogs with bladder cancer; Day 28, n = 8) of the same compound?
The value was 6.

What about the “Improvement of at least 2 scores (lower urinary tract symptom scale), number of dogs” value (dogs with bladder cancer; Day 28, n = 8) of the same compound?
Its value is 4.

What about the “Improvement of at Least 1 Score, percent of dogs” value (dogs with bladder cancer; Day 56, n = 5) of the same compound?
The value was 100%.

And the “Improvement of at Least 2 Scores, percent of dogs” value (dogs with bladder cancer; Day 56, n = 5)?
Its value is 60.0%.

What about the “Improvement of at least 1 score (lower urinary tract symptom scale), number of dogs” value (dogs with bladder cancer; Day 56, n = 5) of the same compound?
The value was 5.

And the “Improvement of at least 2 scores (lower urinary tract symptom scale), number of dogs” value (dogs with bladder cancer; Day 56, n = 5)?
Its value is 3.

And the “Improvement of at Least 1 Score, percent of dogs” value (dogs with bladder cancer; Day 84, n = 3)?
The value was 100%.

What about the “Improvement of at Least 2 Scores, percent of dogs” value (dogs with bladder cancer; Day 84, n = 3) of the same compound?
Its value is 66.7%.

What about the “Improvement of at least 1 score (lower urinary tract symptom scale), number of dogs” value (dogs with bladder cancer; Day 84, n = 3) of the same compound?
The value was 3.

What about the “Improvement of at least 2 scores (lower urinary tract symptom scale), number of dogs” value (dogs with bladder cancer; Day 84, n = 3) of the same compound?
The value was 2.

Source: patent US20230270713A1, “Administration of Resiniferatoxin For Treatment of Bladder Pain or Bladder Cancer” (Sorrento Therapeutics, Inc., priority 2020, published 2023)
